In patent US20130323279A1, “Human Endogenous Retrovirus Polypeptide Compositions and Methods of Use Thereof” (The J. David Gladstone Institutes, priority 2006, published 2013):

Test system: PBMC
Assay: IFN-γ ELISPOT assay of T cell responses to HERV and HIV-1 peptides
Assay type: cell-based, Human
Conditions: a study participant whose PBMC were used for the 51Cr release assay
Description: HIV-1 positive volunteers were selected for this study. The study was approved by the local institutional review board and subjects were given written informed consent. Studies were performed on cryopreserved PBMC from various patient timepoints.
ELISPOT analysis was performed as previously described^34. Plates were incubated 15-18 hours at 37° C. Equivalent antigen concentrations were used for HIV and HERV peptide response comparisons. Assays were performed with duplicate wells for each condition, expect where cell recovery from archived samples dictated the use of single wells. Plates were counted with an AID ELISPOT reader (Cell Technology,). Spot totals for duplicate wells were averaged, and all spot numbers were normalized to numbers of IFN-γ spot-forming units (SFU) per 1×10^6PBMC. Spot values from media control wells were subtracted to determine responses to each peptide. Any resulting peptide values <0 following media subtraction were set to 0 for further analysis.

Sequence: IPVHKAHKKQ [HERV-L IQ10]
- response of study participant's PBMC to peptide: responded
